In test [1] the test system is E. coli strain IH 3080 (018:K1). Nature of the test: MIC of antibiotics in the presence of polymyxin nonapeptide, microtiter plate, E. coli. The class given is cell-based. As to conditions: for factor by which PMBN sensitized the strain to the antibiotic: E. coli 018:K1 strain IH 3080, from Table 2; for MIC of the antibiotic: E. coli IH 3080; for MIC of fusidic acid: E. coli. The protocol: (§1) Methods. Smooth Salmonella typhimurium LT2 strain SL 696 (Wilkinson et al 1972 J. Gen. Microbiol. 70,527) was used as indicator organism. It was grown in Luria broth (Miller 1972. Experience in molecular genetics, Cold Spring Harbor Laboratory, New York) at 37° C. in a rotary shaker (220 rpm) into early logarithmic growth phase (Klett 40 units, Klett-Summerson colorimeter, red filter) washed with 0.9% NaCl and resuspended in 0.9% NaCl (final optical density 120 Klett units corresponding to approx. 10^9 cells/ml).
(§2) Erythromycin ethylsuccinate stock solution was prepared by dissolving 5.5 mg of erythromycin […] with 2 ml of 96% ethanol whereafter deionized water was added to a final volume of 5.5 ml. Other antibiotics were readily dissolved in deionized water.
(§3) Experimental procedure: Davis minimal growth medium (Sanderson et al, 1972, Bact. Rev. 36,608) containing glucose (1 g/l), casaminoacids (1 g/l. Difco), tryptophan (20 mg/l), and increasing amounts of a particular antibiotic was inoculated with 10^4 cells per ml of a fresh suspension of indicator bacteria. Aliquots (200 μl) of this inoculated medium were pipetted in wells of a microtiter plate (Titertek, CAT NO. 76-213-05, Flow Laboratories, United States). Each well already contained increasing amounts of the particular polycationic agent in 30 μl of 0.9% NaCl. The plates were sealed with adhesive tape and incubated at 37° C. for 18 h.
Methods. The methods were those presented in Example 3 except that E. coli was used as the test organism. The E. coli strain was IH 3080 (018:K1) isolated from the cerebrospinal fluid of a neonate with meningitis.
(§4) Methods. The known compound, polymyxin E nonapeptide (colistin E nonapeptide, Japanese patent specification Nos. 4178/1971 and 51355/1972) having the following formula: [drawing 5] where leu is leucine, thr is threonine, and dab is diaminobutyric acid, was prepared from polymyxin E (colistin) using an enzymatic ficin treatment as described by Chihara et al (Agr. Biol. Chem. 37,2455, 1973).

Test [2] relates to Salmonella typhimurium LT2 strain SL 696. The test can be described thus: MIC of antibiotics in the presence of polymyxin nonapeptide, microtiter plate, S. typhimurium. The class given is cell-based. As to conditions: for minimum inhibitory concentration (MIC) of the antibiotic: S. typhimurium SL 696, 18 h; for factor by which PMBN sensitized the strain to the antibiotic: S. typhimurium strain SL 696, from Table 1; for MIC of fusidic acid: S. typhimurium. The protocol: as §1, §2, §3, §4

Test [3] deals with E. coli strain IH 3080 (018:K1). Nature of the test: Experimental E. coli infection in mice, PMBN combined with erythromycin. The class given is in vivo, female NMRI mice. As to conditions: for Number of dead mice: 10 mice per group. The source says:
Methods. […] The mice were followed 7 days for deaths.

SMILES strings stand for the structures.

For the compound `CC1(C)S[C@@H]2[C@H](NC(=O)Cc3ccccc3)C(=O)N2[C@H]1C(=O)O` [Benzylpenicillin, benzylpenicillin], the “factor by which PMBN sensitized the strain to the antibiotic” value (shortened to “factor”) in test [1] is given as 3 times; in test [2] it was 10 times. For the same compound, the MIC of the antibiotic came to 10 mg/L in test [1] (PMBN 0 μg/ml); 10 mg/L in test [1] (PMBN 0.3 μg/ml); 10 mg/L in test [1] (PMBN 1 μg/ml); 3 mg/L in test [1] (PMBN 3 μg/ml); 3 mg/L in test [1] (PMBN 10 μg/ml). Also, the “minimum inhibitory concentration (MIC) of the antibiotic” value (“minimum inhibitory concentration (MIC)” below) is on record as 10 in test [2] (PMBN 0 μg/ml); 10 in test [2] (PMBN 0.3 μg/ml); 10 in test [2] (PMBN 1 μg/ml); 3 in test [2] (PMBN 3 μg/ml); 3 in test [2] (PMBN 10 μg/ml); 1 in test [2] (PMBN 30 μg/ml).

For `CCC[C@@H]1C[C@@H](C(=O)N[C@@H]([C@H]2O[C@H](SC)[C@H](O)[C@@H](O)[C@H]2O)[C@H](C)Cl)N(C)C1.Cl` [Clindamycin, clindamycin hydrochloride], the MIC of the antibiotic in test [1] (PMBN 0 μg/ml) is 30 mg/L; in test [1] (PMBN 0.3 μg/ml), 3 mg/L; in test [1] (PMBN 1 μg/ml), 3 mg/L; in test [1] (PMBN 3 μg/ml) it was 3 mg/L; in test [1] (PMBN 10 μg/ml), 3 mg/L.

Take `Cc1onc(-c2ccccc2Cl)c1C(=O)N[C@@H]1C(=O)N2[C@@H]1SC(C)(C)[C@@H]2C(=O)O` [Cloxacillin, cloxacillin]: the figures for the “factor” value in test [1] and in test [2] were 100 times and not below 30 times, respectively. Besides, the MIC of the antibiotic in test [1] (PMBN 0 μg/ml) is more than 300 mg/L; in test [1] (PMBN 0.3 μg/ml) it was 100 mg/L; in test [1] (PMBN 1 μg/ml), 100 mg/L; in test [1] (PMBN 3 μg/ml), 30 mg/L; in test [1] (PMBN 10 μg/ml), 30 mg/L. In addition, the “minimum inhibitory concentration (MIC)” value was not below 1000 in test [2] (PMBN 0 μg/ml); 300 in test [2] (PMBN 0.3 μg/ml); 100 in test [2] (PMBN 1 μg/ml); 100 in test [2] (PMBN 3 μg/ml); 30 in test [2] (PMBN 10 μg/ml); 30 in test [2] (PMBN 30 μg/ml).

Take `CCOC(=O)CCC(=O)O[C@H]1[C@H](O[C@@H]2[C@@H](C)[C@H](O[C@H]3C[C@@](C)(OC)[C@@H](O)[C@H](C)O3)[C@@H](C)C(=O)O[C@H](CC)[C@@](C)(O)[C@H](O)[C@@H](C)C(=O)[C@H](C)C[C@@]2(C)O)O[C@H](C)C[C@@H]1N(C)C` [Erythromycin, erythromycin ethylsuccinate]: the entries for the “factor” value in test [1] and in test [2] were not below 100 times and not below 30 times, respectively. In addition, the MIC of the antibiotic in test [1] (PMBN 0 μg/ml) was 30 mg/L; in test [1] (PMBN 0.3 μg/ml), 1 mg/L; in test [1] (PMBN 1 μg/ml) it was 1 mg/L; in test [1] (PMBN 3 μg/ml) it was 1 mg/L; in test [1] (PMBN 10 μg/ml), 1 mg/L. Moreover, the “minimum inhibitory concentration (MIC)” value was not below 100 in test [2] (PMBN 0 μg/ml); 30 in test [2] (PMBN 0.3 μg/ml); 10 in test [2] (PMBN 1 μg/ml); 10 in test [2] (PMBN 3 μg/ml); 3 in test [2] (PMBN 10 μg/ml); 3 in test [2] (PMBN 30 μg/ml). Moreover, the “Number of dead mice” value in test [3] (day 1 after infection, erythromycin 10 mg/kg i.p., PMBN 10 mg/kg s.c.) is 7; in test [3] (day 2 after infection), 8; in test [3] (day 3 after infection), 9; in test [3] (day 4 after infection) it was 9; in test [3] (day 5 after infection), 9; in test [3] (day 6 after infection), 9. For the same compound, in test [3] (day 7 after infection), the “Number of dead mice” value was 9. The “therapeutic action against the E. coli infection” value in test [3] (mice, erythromycin 10 mg/kg, PMBN 10 mg/kg) was “without any therapeutic action”.

On to `CC(=O)O[C@H]1C[C@@]2(C)[C@@H](C[C@@H](O)[C@H]3[C@@]4(C)CC[C@@H](O)[C@@H](C)[C@@H]4CC[C@@]32C)/C1=C(\CCC=C(C)C)C(=O)O` [Fusidic acid, fusidic acid], for which the “factor” value in test [1] is given as 100 times; in test [2], not below 100 times. Besides, the MIC of the antibiotic in test [1] (PMBN 0 μg/ml) was found to be 100 mg/L; in test [1] (PMBN 0.3 μg/ml), 3 mg/L; in test [1] (PMBN 1 μg/ml), 3 mg/L; in test [1] (PMBN 3 μg/ml), 3 mg/L; in test [1] (PMBN 10 μg/ml) it was 1 mg/L. Further, the “MIC of fusidic acid” value in test [1] (PMEN 0 μg/ml) is given as 100; in test [1] (PMEN 0.3 μg/ml), 10; in test [1] (PMEN 1.0 μg/ml) it was 10; in test [1] (PMEN 3.0 μg/ml), 3; in test [1] (PMEN 10 μg/ml), 3; in test [1] (PMEN 30 μg/ml) it was 1. The “MIC of fusidic acid” value in test [2] (PMEN 0 μg/ml) was determined as 300; in test [2] (PMEN 0.3 μg/ml) it was 100; in test [2] (PMEN 1.0 μg/ml), 30; in test [2] (PMEN 3.0 μg/ml), 10; in test [2] (PMEN 10 μg/ml) it was 3; in test [2] (PMEN 30 μg/ml) it was 1. For the same compound, the “minimum inhibitory concentration (MIC)” value in test [2] (PMBN 0 μg/ml) is recorded as 300; in test [2] (PMBN 0.3 μg/ml), 100; in test [2] (PMBN 1 μg/ml), 30; in test [2] (PMBN 3 μg/ml), 30; in test [2] (PMBN 10 μg/ml), 10; in test [2] (PMBN 30 μg/ml), not below 3.

For `CCOc1ccc2ccccc2c1C(=O)N[C@@H]1C(=O)N2[C@@H]1SC(C)(C)[C@@H]2C(=O)O` [Nafcillin, nafcillin], the “minimum inhibitory concentration (MIC)” value in test [2] (PMBN 0 μg/ml) is not below 1000; in test [2] (PMBN 0.3 μg/ml) it was not below 1000; in test [2] (PMBN 1 μg/ml), 100; in test [2] (PMBN 3 μg/ml), 100; in test [2] (PMBN 10 μg/ml) it was 30; in test [2] (PMBN 30 μg/ml), 30. Also, the “factor” value in test [2] is not below 30 times.

For the compound `CO[C@@H]1[C@@H](OC(N)=O)[C@@H](O)[C@H](Oc2ccc3c(O)c(NC(=O)c4ccc(O)c(CC=C(C)C)c4)c(=O)oc3c2C)OC1(C)C` [Novobiocin, novobiocin], the “factor” value in test [1] is 10 times; in test [2], not below 100 times. Besides, the MIC of the antibiotic is 30 mg/L in test [1] (PMBN 0 μg/ml); 10 mg/L in test [1] (PMBN 0.3 μg/ml); 10 mg/L in test [1] (PMBN 1 μg/ml); 3 mg/L in test [1] (PMBN 3 μg/ml); 3 mg/L in test [1] (PMBN 10 μg/ml). Moreover, the “minimum inhibitory concentration (MIC)” value in test [2] (PMBN 0 μg/ml) is not below 100; in test [2] (PMBN 0.3 μg/ml) it was 10; in test [2] (PMBN 1 μg/ml), 3; in test [2] (PMBN 3 μg/ml), 3; in test [2] (PMBN 10 μg/ml), 1; in test [2] (PMBN 30 μg/ml), 1.

On to `CO[C@H]1/C=C/O[C@@]2(C)Oc3c(C)c(O)c4c(O)c(c(/C=N/N5CCN(C)CC5)c(O)c4c3C2=O)NC(=O)/C(C)=C\C=C\[C@H](C)[C@H](O)[C@@H](C)[C@@H](O)[C@@H](C)[C@H](OC(C)=O)[C@@H]1C` [Rifampicin], for which the “factor” value in test [1] turned out to be 100 times. For the same compound, the MIC of the antibiotic in test [1] (PMBN 0 μg/ml) was found to be 3 mg/L; in test [1] (PMBN 0.3 μg/ml), 3 mg/L; in test [1] (PMBN 1 μg/ml) it was 0.1 mg/L; in test [1] (PMBN 3 μg/ml) it was 0.03 mg/L; in test [1] (PMBN 10 μg/ml) it was 0.03 mg/L.

The values are drawn from US4510132A, “Compounds for use in antibacterial therapy” (priority 1982, dated 1985).
